Data from patent US11046712B2, “Glycosidase inhibitors” (Asceneuron SA, priority 2014, dated 2021).

Target: His-Tagged hOGA (human O-GlcNAcase) (Homo sapiens (Human), UniProt O60502)
Assay: Human O-GlcNAcase enzyme inhibition assay (Example B01)
Assay type: biochemical
Conditions: not given

Sequence of His-Tagged hOGA (human O-GlcNAcase) (O60502 whole entry): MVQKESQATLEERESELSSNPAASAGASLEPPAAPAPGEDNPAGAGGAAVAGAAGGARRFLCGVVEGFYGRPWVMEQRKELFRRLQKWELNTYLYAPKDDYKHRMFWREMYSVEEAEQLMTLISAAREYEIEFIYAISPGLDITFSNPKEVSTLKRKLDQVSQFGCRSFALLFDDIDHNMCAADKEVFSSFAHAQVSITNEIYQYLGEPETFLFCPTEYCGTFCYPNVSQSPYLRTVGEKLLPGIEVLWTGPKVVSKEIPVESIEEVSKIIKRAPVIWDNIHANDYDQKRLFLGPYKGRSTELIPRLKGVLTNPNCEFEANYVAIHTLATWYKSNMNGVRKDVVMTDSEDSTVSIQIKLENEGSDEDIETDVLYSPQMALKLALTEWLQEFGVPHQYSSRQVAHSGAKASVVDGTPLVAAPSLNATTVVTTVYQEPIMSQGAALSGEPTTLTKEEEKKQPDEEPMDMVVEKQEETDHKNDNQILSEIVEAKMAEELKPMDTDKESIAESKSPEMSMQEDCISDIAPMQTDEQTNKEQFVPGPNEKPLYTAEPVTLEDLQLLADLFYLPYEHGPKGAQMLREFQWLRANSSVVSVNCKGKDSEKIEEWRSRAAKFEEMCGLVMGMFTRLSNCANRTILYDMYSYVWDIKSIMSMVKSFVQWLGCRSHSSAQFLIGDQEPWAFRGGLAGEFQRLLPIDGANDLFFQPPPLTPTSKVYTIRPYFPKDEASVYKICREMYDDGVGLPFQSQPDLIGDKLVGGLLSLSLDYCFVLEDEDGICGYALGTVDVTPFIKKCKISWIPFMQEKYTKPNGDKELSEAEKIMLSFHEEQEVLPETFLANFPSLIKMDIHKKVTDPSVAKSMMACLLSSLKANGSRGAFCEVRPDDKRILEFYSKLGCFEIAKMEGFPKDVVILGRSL

SMILES | OGA inhibitor activity, in words
Cc1ncc(N2CCN(C(C)c3ccc4c(c3)OCO4)CC2)s1 (racemic) [Example 37, 5-(4-(1-(Benzordiri,31dioxol-5-yl)ethyl)piperazin-1-yl)-2-methylthiazole] | very potent OGA inhibitors
C[C@@H](c1ccc2c(c1)OCCO2)N1CCN(c2ncccn2)CC1 (single isomer, unassigned) [Example 34, (R)-2-(4-(1-(2,3-Dihydrobenzorbiri,41dioxin-6-yl)ethyl)piperazin-1-yl)pyrimidine or (S)-2-(4-(1-(2,3-Dihydrobenzorbiri^1dioxin-6-yl)ethyl)piperazin-1-yl)pyrimidine] | very potent OGA inhibitors
C[C@@H](c1ccc2c(c1)OCCO2)N1CCN(c2ncc(C(=O)N3CCN(C)CC3)s2)CC1 (single isomer, unassigned) [Example 75] | very potent OGA inhibitors
C[C@@H](c1ccc2c(c1)OCO2)N1CCN(c2nc3c(s2)CNCC3)CC1 [Example 182, (S)-2-(4-(1-(benzofdlM,31dioxol-5-yl)ethyl)piperazin-1-yl)-4,5,6,7-tetrahydrothiazoloi5,4-c1pyridine] | very potent OGA inhibitors

Second part, the compound after the results:

OGA inhibitor activity, in words | SMILES
very potent OGA inhibitors | CNC(=O)c1cnc(N2CCN([C@@H](C)c3ccc4c(c3)OCO4)CC2)nc1 [Example 134, (S) 2-(4-(1-(benzordiri,31dioxol-5-yl)ethyl)piperazin-1-yl)-N-methylpyrimidine-5-carboxamide]
very potent OGA inhibitors | CC(=O)Nc1cnc(N2CCN(C(C)c3ccc4c(c3)OCC4)CC2)nc1 (racemic) [Example 129]
very potent OGA inhibitors | CC(O)c1cnc(N2CCN([C@@H](C)c3ccc4c(c3)OCO4)CC2)nc1 (stereo in doubt) [Example 168, 1-(2-(4-((S)-1-(benzo[dl]1,31dioxol-5-yl)ethyl)piperazin-1-yl)pyrimidin-5-yl)ethan-1-ol]
very potent OGA inhibitors | C[C@@H](c1ccc2c(c1)OCO2)N1CCN(c2ncc(F)cn2)CC1 [Example 173, (S)-2-(4-(1-(benzofdin,31dioxol-5-yl)ethyl)piperazin-1-yl)-5-fluoropyrimidine]
very potent OGA inhibitors | CC(=O)Nc1nnc(N2CCN(C(C)c3ccc4c(c3)OCC4)CC2)s1 (racemic) [Example 128]
very potent OGA inhibitors | CC(=O)Nc1nnc(N2CCN(C(C)c3ccc4scnc4c3)CC2)s1 (racemic) [Example 114]
very potent OGA inhibitors | C[C@@H](c1ccc2c(c1)OCO2)N1CCN(c2ncc(C(C)(C)O)cn2)CC1 [Example 176, (S)-2-(2-(4-(1-(benzordiri,31dioxol-5-yl)ethyl)piperazin-1-yl)pyrimidin-5-yl)propan-2-ol]
very potent OGA inhibitors | C[C@@H](c1ccc2c(c1)OCO2)N1CCN(c2ncc(C3(O)CCCCC3)cn2)CC1 [Example 180, (S)-1-(2-(4-(1-(benzo[dl][1,31dioxol-5-yl)ethyl)piperazin-1-yl)pyrimidin-5-yl)cyclohexan-1-ol]
very potent OGA inhibitors | CC(c1ccc2c(c1)OCO2)N1CCN(c2ncc(CO)cn2)CC1 (racemic) [Example 52, (2-(4-(1-(benzordiri,31 dioxol-5-yl)ethyl)piperazin-1-yl)pyrimidin-5-yl)methanol]
very potent OGA inhibitors | C[C@@H](c1ccc2c(c1)OCO2)N1CCN(c2nnc(N)s2)CC1 [Example 132, (S)-5-(4-(1-(benzordiri,31dioxol-5-yl)ethyl)piperazin-1-yl)-1,3,4-thiadiazol-2-amine]
very potent OGA inhibitors | CC(=O)Nc1cnc(N2CCN(C(C)c3ccc4scnc4c3)CC2)nc1 (racemic) [Example 116, N-(2-(4-(1-(benzord1thiazol-5-yl)ethyl)piperazin-1-yl)pyrimidin-5-yl)acetamide]
very potent OGA inhibitors | CC(c1ccc2c(c1)OCO2)N1CCN(c2ncc(C(N)=O)s2)CC1 (racemic) [Example 48, 2-(4-(1-(Benzord1(1,3)dioxol-5-yl)ethyl)piperazin-1-yl)thiazole-5-carboxamide]
very potent OGA inhibitors | C[C@@H](c1ccc2c(c1)OCO2)N1CCN(c2ncc(C(=O)N(C)C)cn2)CC1 [Example 137]
very potent OGA inhibitors | C[C@@H](c1ccc2c(c1)OCO2)N1CCN(c2ncc(C3(O)CCCC3)cn2)CC1 [Example 181, (S)-1-(2-(4-(1-(benzofdlH,31dioxol-5-yl)ethyl)piperazin-1-yl)pyrimidin-5-yl)cyclopentan-1-ol]

Same assay, conditions: OGA IC50 (M), OGA enzyme inhibition assay; activity range classes

SMILES | IC50
CC(=O)Nc1cnc(N2CCN(C(C)c3ccc4cccnc4c3)CC2)nc1 (racemic) [Example 120, N-(2-(4-(1-(quinolin-7-yl)ethyl)piperazin-1-yl)pyrimidin-5-yl)acetamide] | 2e-07 to 1e-06 M
C[C@@H](c1ccc2c(c1)OCCO2)N1CCN(c2ncc(C(=O)N(C)C)s2)CC1 (single isomer, unassigned) [Example 64] | < 5e-08 M
CCNC(=O)c1cnc(N2CCN([C@@H](C)c3ccc4c(c3)OCO4)CC2)s1 (single isomer, unassigned) [Example 60] | 5e-08 to 2e-07 M
Cc1csc(N2CCN([C@H](C)c3ccc4c(c3)OCO4)CC2)n1 (single isomer, unassigned) [Example 15, (R)-2-(4-(1-(benzordiri,31dioxol-5-yl)ethyl)piperazin-1-yl)-4-methylthiazole or (S)-2-(4-(1-(benzordiri,31 dioxol-5-yl)ethyl)piperazin-1-yl)-4-methylthiazole] | 5e-08 to 2e-07 M
C[C@@H](c1ccc2c(c1)OCCO2)N1CCN(c2ncc(C(=O)N3CCN(C)CC3)s2)CC1 (single isomer, unassigned) [Example 75] | < 5e-08 M
C[C@H](c1ccc2nccnc2c1)N1CCN(c2ncc(C(F)(F)F)cn2)CC1 (single isomer, unassigned) [Example 104, (S)-6-(1-(4-(5-(trifluoromethyl)pyrimidin-2-yl)piperazin-1-yl)ethyl)quinoxaline or (R)-6-(1-(4-(5-(trifluoromethyl)pyrimidin-2-yl)piperazin-1-yl)ethyl)quinoxaline] | 5e-08 to 2e-07 M
COc1cc(C(C)N2CCN(c3nnc(NC(C)=O)s3)CC2)ccc1Cl (racemic) [Example 88] | 1e-06 to 1e-05 M
CC(=O)Nc1cnc(N2CCN([C@H](C)c3ccc4c(c3)OCO4)CC2)nc1 (single isomer, unassigned) [Example 77] | 1e-06 to 1e-05 M
C[C@@H](c1ccc2c(c1)OCCO2)N1CCN(c2ncc(C(=O)N(C)C)s2)CC1 (single isomer, unassigned) [Example 63] | 1e-06 to 1e-05 M
CCNC(=O)c1cnc(N2CCN([C@@H](C)c3ccc4c(c3)OCO4)CC2)s1 (single isomer, unassigned) [Example 59] | 1e-06 to 1e-05 M
CNC(=O)c1cnc(N2CCN([C@@H](C)c3ccc4c(c3)OCO4)CC2)s1 (single isomer, unassigned) [Example 66] | < 5e-08 M
CNC(=O)c1cnc(N2CCN([C@@H](C)c3ccc4c(c3)OCO4)CC2)s1 (single isomer, unassigned) [Example 65] | 1e-06 to 1e-05 M
CCNC(=O)c1cnc(N2CCN([C@@H](C)c3ccc4c(c3)OCCO4)CC2)s1 (single isomer, unassigned) [Example 62, (S)-2-(4-(1-(2,3-dihydrobenzorbiri,41dioxin-6-yl)ethyl)piperazin-1-yl)-N-ethylthiazole-5-carboxamide or (R)-2-(4-(1-(2,3-dihydrobenzorblH,41dioxin-6-yl)ethyl)piperazin-1-yl)-N-ethylthiazole-5-carboxamide] | 5e-08 to 2e-07 M

Same assay, conditions: OGA enzyme inhibition assay; activity range classes; read-out: OGA IC50

SMILES | IC50
CC(c1ccc2c(c1)OCO2)N1CCN(c2nc(CN)cs2)CC1 (stereo not drawn) [Example 84, (2-(4-(1-(benzordin,31 dioxol-5-yl)ethyl)piperazin-1-yl)thiazol-4-yl)methanamine] | 5e-08 to 2e-07 M
CC(=O)NCc1csc(N2CCN(C(C)c3ccc4c(c3)OCO4)CC2)n1 (stereo not drawn) [Example 85, N-((2-(4-(1-(benzordiri,31dioxol-5-yl)ethyl)piperazin-1-yl)thiazol-4-yl)methyl)acetamide] | < 5e-08 M
C[C@@H](c1ccc2c(c1)OCCO2)N1CCN(c2ncc(C(=O)N(C)CCN(C)C)s2)CC1 (single isomer, unassigned) [Example 71, (R)-2-(4-(1-(2,3-Dihydrobenzorb1H,41dioxin-6-yl)ethyl)piperazin-1-yl)-N-(2-(dimethylamino)ethyl)-N-methylthiazole-5-carboxamide or (S)-2-(4-(1-(2,3-dihydrobenzorbiri^1dioxin-6-yl)ethyl)piperazin-1-yl)-N-(2-(dimethylamino)ethyl)-N-methylthiazole-5-carboxamide] | < 5e-08 M
C[C@@H](c1ccc2c(c1)OCCO2)N1CCN(c2ncccn2)CC1 (single isomer, unassigned) [Example 34, (R)-2-(4-(1-(2,3-Dihydrobenzorbiri,41dioxin-6-yl)ethyl)piperazin-1-yl)pyrimidine or (S)-2-(4-(1-(2,3-Dihydrobenzorbiri^1dioxin-6-yl)ethyl)piperazin-1-yl)pyrimidine] | < 5e-08 M
C[C@@H](c1ccc2c(c1)OCO2)N1CCN(c2nc3c(s2)CN(C)CC3)CC1 [Example 194, (S)-2-(4-(1-(benzordiri,31dioxol-5-yl)ethyl)piperazin-1-yl)-5-methyl-4,5,6,7-tetrahydrothiazoloi5,4-c1pyridine] | < 5e-08 M
C[C@@H](c1ccc2c(c1)OCCO2)N1CCN(c2ncc(C(=O)N3CCC(O)CC3)s2)CC1 (single isomer, unassigned) [Example 81, (/?)-(2-(4-(1-(2,3-Dihydrobenzorbin,41dioxin-6-yl)ethyl)piperazin-1-yl)thiazol-5-yl)(4-hydroxypiperidin-1-yl)methanone or (S)-(2-(4-(1-(2,3-Dihydrobenzorbin,41dioxin-6-yl)ethyl)piperazin-1-yl)thiazol-5-yl)(4-hydroxypiperidin-1-yl)methanone] | < 5e-08 M
C[C@H](O)c1cnc(N2CCN([C@@H](C)c3ccc4c(c3)OCO4)CC2)nc1 (single isomer, unassigned) [Example 198] | < 5e-08 M
CNC(=O)c1csc(N2CCN([C@@H](C)c3ccc4c(c3)OCCO4)CC2)n1 (single isomer, unassigned) [Example 57, (R)-2-(4-(1-(2,3-dihydrobenzorbin,41dioxin-6-yl)ethyl)piperazin-1-yl)-N-methylthiazole-4-carboxamide or (S)-2-(4-(1-(2,3-dihydrobenzorbiri,41dioxin-6-yl)ethyl)piperazin-1-yl)-N-methylthiazole-4-carboxamide] | < 5e-08 M
